Source: BigSolDB 2.1

CCOC(=O)[C@@H]1CSCN1.Cl
solubility (mole fraction)
Conditions	283.15 K	288.15 K	293.15 K	298.15 K	303.15 K	313.15 K	323.15 K
in 1,4-dioxane	–	0.000476	0.000593	–	0.000872	0.00156	0.00266
in 2-butanone	4.1e-05	–	0.000107	–	0.00018	0.000298	0.000434
in acetone	4e-05	–	0.000116	–	0.000348	0.000859	0.00187
in acetonitrile	0.000408	–	0.00125	–	0.00252	0.00451	0.00664
in dichloromethane	0.00638	0.01	0.0128	0.0157	0.0187	–	–
in ethanol	0.00937	–	0.0125	–	0.0193	0.0306	0.0473
in ethyl acetate	0.000103	–	0.000161	–	0.000215	0.000273	0.000345
in isobutanol	0.00153	–	0.00257	–	0.00495	0.00811	0.0117
in isopropanol	0.00271	–	0.00323	–	0.00492	0.00807	0.0131
in methanol	0.0465	–	0.0619	–	0.0835	0.112	0.142
in methyl acetate	3.8e-05	–	7e-05	–	0.000126	0.000192	0.000276
in n-butanol	0.00141	–	0.00427	–	0.00829	0.0124	0.017
in n-propanol	0.00489	–	0.0078	–	0.012	0.0186	0.0298
in sec-butanol	0.000766	–	0.00103	–	0.00182	0.00365	0.00936
in water	0.0825	–	0.104	–	0.124	0.148	0.188
